Values after ≈ are worked out from the molar mass of the structure shown. Where only a bound is given, the exact number is not on record here.

Experimental findings from EPA's ToxValDB 9.5 (doi:10.2903/j.efsa.2007.117r) are described below.

One data set has as its system Bibionidae. As to conditions: chronic/long-term; duration: 24 days; reproduction.
A further data set deals with Tagia sp. Particulars: acute; duration: 14 days; mortality.
Another data set deals with Apis mellifera. Particulars: acute; duration: 48 hours; oral; unspecified; mortality.
Another data set relates to Oryctolagus sp. As to conditions: reproduction developmental; reproduction.
Another data set deals with Canidae. Particulars: subchronic; duration: 90 days; oral; Dog Other.
The next data set concerns Daphnia magna. Particulars: chronic/long-term; duration: 21 days; reproduction.
Another data set has as its system Aphidius rhopalosiphi. Particulars: chronic/long-term; mortality.
The subject of another data set is Bird. As to conditions: for LD50: oral, mortality.

As for `NC1=C(Cl)C(=O)c2ccccc2C1=O` [2-Amino-3-chloro-1,4-naphthoquinone], the NOEC in the data set on Bibionidae was 0.063 mg/L; in the data set on Oncorhynchus mykiss (chronic/long-term, duration: 21 days, behavior) it was 0.02 mg/L; in the data set on Daphnia magna it was 0.0021 mg/L. The LC50 in the data set on Tagia sp. worked out at 125 mg/kg; with Oncorhynchus mykiss (acute, duration: 96 hours, mortality) it was 0.063 µg/mL (≈ 0.303 µM). Besides, the LD50 is 500 mg/kg-day in the data set on Rattus norvegicus (acute, oral, mortality); over 28 µg/piece in the data set with Apis mellifera; over 2000 mg/kg-day in the data set on Bird (acute, unspecified); 394 mg/kg-day in the data set with Bird (short-term, feed). Besides, the NOAEL in the data set with Rattus norvegicus (chronic, duration: 2 years, organ weight) was 0.21 mg/kg-day; in the data set on Rattus norvegicus (reproduction developmental, body weight), 5 mg/kg-day; in the data set with Oryctolagus sp. it was 17.5 mg/kg-day; in the data set on Canidae, 3 mg/kg-day; in the data set on Bird (chronic/long-term) it was 36.2 mg/kg-day. Besides, the LEL in the data set on Aphidius rhopalosiphi was found to be 3810 g/ha.
